Patent US20240383922A1, “KRAS Modulating Compounds” (Gilead Sciences, Inc., priority 2023, published 2024)
Like-named read-outs stand apart in the source and are kept apart here.

Key:
[1] = system: cellular pERK in ASPC-1 (KRAS G12D) cell-line; assay: Cell based pERK assay (HTRF), ASPC-1; settings: ASPC-1 (KRAS G12D) cells, 2 hours incubation
Experimental: (§1) Compounds were tested in a 384-well assay format for their ability to inhibit cellular pERK in Kuramochi (WT KRAS), MIA-PaCa-2 (KRAS-G12C), ASPC-1 (KRAS G12D), and NCI-H441 (KRAS-G12V) cell-lines. Compounds were serially diluted (1:3) in DMSO. On day −1, 80 uL of cells were plated per well in the 384 well tissue-culture plates (Greiner: Cat #781080) to seed 5000 cells per wells of AsPC-1 or 7500 cells of MIA-PaCa-2, NCI-H441, and Kuramochi cell lines in RPMI (Corning: Cat #10-040-CM) with 10% fetal bovine serum (FBS) (HyClone: Cat #SH30071-03) and 1× penicillin-streptomycin-glutamate (PSG) (Corning: Cat #30-009-CI) for […] and Kuramochi cell lines and DMEM (Corning: Cat #15-018-CM) with […] and 1× PSG for MKA-PaCa-2 cell line. The plates were then incubated overnight at 37° C. and 5% CO2. On day 0, 400 nL of compound/well was added into the cell plates and mixed 5 times by pipetting using a Beckmann Biomek FX. The cell plates were then incubated for 2 hours at 37° C. and 5% CO2. HTRF Advanced Phospho-ERK1/2 ([…]) Detection Kits (PerkinElmer: Cat #64AERPEG) were used to prepare the lysis and detection solution according to manufacturer protocol. Following the 2 hour incubation, 70 μL of medium was aspirated from the plates and 10 uL of lysis and detection solution was added to the plates using a Biotek EL406 washer and dispenser. Plates were sealed and stored overnight at room temperature. HTRF ratio (665 nm/615 nm) was read by Envision multimode reader (PerkinElmer) the next day. The TR-FRET ratios were normalized to a positive (saturating concentration of known inhibitor) and negative (DMSO) control and plotted against the log of compound concentration. IC50 values were defined as the compound concentration that causes a […] in normalized signal and were calculated using a sigmoidal dose-response model to generate curve fits.

[2] = system: cellular pERK in MIA-PaCa-2 (KRAS-G12C) cell-line; assay: Cell based pERK assay (HTRF), MIA-PaCa-2; settings: MIA-PaCa-2 (KRAS-G12C) cells, 2 hours incubation, read-out: MIAPaCa2 pERK EC50
Experimental: as §1

[3] = system: cellular pERK in NCI-H441 (KRAS-G12V) cell-line; assay: Cell based pERK assay (HTRF), NCI-H441; settings: NCI-H441 (KRAS-G12V) cells, 2 hours incubation
Experimental: as §1

[4] = system: cellular pERK in Kuramochi (WT KRAS) cell-line; assay: Cell based pERK assay (HTRF), Kuramochi; settings: Kuramochi (WT KRAS) cells, 2 hours incubation
Experimental: as §1

| SMILES | EC50 ([1]; read-out: AsPC1 pERK EC50) | EC50 [2] | EC50 [3] | EC50 [4] | EC50 ([1]; Homo sapiens, ASPC1) | EC50 ([2]; Homo sapiens) | EC50 ([3]; Homo sapiens) |
| --- | --- | --- | --- | --- | --- | --- | --- |
| C#Cc1c(F)ccc2cc(N)cc(-c3nc4c5c(nc(OC[C@@]67CCCN6C[C@H](F)C7)nc5c3F)N3CCCOC[C@@H]3C[C@@H]4C)c12 [Example 7-10] |  |  |  | 208 nM | > 697 nM | 218 nM | > 535 nM |
| C#Cc1c(F)ccc2cc(O)cc(-c3nc4c5c(nc(OC[C@@]67CCCN6C[C@H](F)C7)nc5c3F)N3CCCOCC3C[C@@H]4O)c12 (stereo partly drawn) [Example 22-5] |  |  |  | 79.7 nM | 128 nM | 70 nM | 212 nM |
| CCc1c(F)ccc2cc(O)cc(-c3nc4c5c(nc(OC[C@@]67CCCN6C[C@H](F)C7)nc5c3F)N3CCCC[C@H]3CC4)c12 [Example 2-1, 5-ethyl-6-fluoro-4-((S)-1-fluoro-11-(((2R,7aS)-2-fluorotetrahydro-1H-pyrrolizin-7a(5H)-yl)methoxy)-5,5a,6,7,8,9-hexahydro-4H-3,9a,10,12-tetraazabenzo[4,5]cyclohepta[1,2,3-de]naphthalen-2-yl)naphthalen-2-ol] | 114 nM | 54.9 nM | 74.6 nM | 24.7 nM |  |  |  |
| C#Cc1c(F)ccc2cccc(-c3nc4c5c(nc(OC[C@@]67CCCN6[C@H](COC(=O)NCC)CC7)nc5c3F)N3CCCOC[C@@H]3CC4)c12 [Example 16-3] |  |  |  | 5.23 nM | 14 nM | 2.76 nM | 12.7 nM |
| CCc1c(F)ccc2cc(O)cc(-c3nc4c5c(nc(OC[C@@]67CCCN6C[C@H](F)C7)nc5c3F)N3CCCOC[C@@H]3CC4)c12 [Example 8-3] |  |  |  | 1.91 nM | 9.88 nM | 1.57 nM | 3.8 nM |
| C#Cc1c(F)ccc2cc(O)cc(-c3nc4c5c(nc(OC[C@@]67CCCN6C[C@H](F)C7)nc5c3F)N3CCCCC3(C)CC4)c12 (stereo partly drawn) [Example 13-1, 5-ethynyl-6-fluoro-4-(1-fluoro-11-(((2R,7aS)-2-fluorotetrahydro-11H-pyrrolizin-7a(5H)-yl)methoxy)-5a-methyl-5,5a,6,7,8,9-hexahydro-4H-3,9a,10,12-tetraazabenzo[4,5]cyclohepta[1,2,3-de]naphthalen-2-yl)naphthalen-2-ol] | > 1000 nM | 319 nM | 380 nM | 117 nM |  |  |  |
| C#Cc1c(F)ccc2cc(O)cc(-c3nc4c5c(nc(OC[C@@]67CCCN6C[C@H](F)C7)nc5c3F)N3CCOCC[C@H]3CC4)c12 (single isomer, unassigned) [Example 9-1] |  |  |  | 46.9 nM | 315 nM | 15.8 nM | 101 nM |
| C#Cc1c(F)ccc2cc(O)cc(-c3nc4c5c(nc(OC[C@@]67CCCN6C[C@H](F)C7)nc5c3F)N3CCCCC[C@@H]3CC4)c12 [Example 20-1, 5-ethynyl-6-fluoro-4-((R)-1-fluoro-12-(((2R,7aS)-2-fluorotetrahydro-1H-pyrrolizin-7a(5H)-yl)methoxy)-4,5,5a,6,7,8,9,10-octahydro-3,10a,11,13-tetraazanaphtho[1,8-ab]heptalen-2-yl)naphthalen-2-ol] |  |  |  | 6.34 nM | 42.5 nM | 8.73 nM | 42.3 nM |
| C#Cc1c(F)ccc2cc(O)cc(-c3nc4c5c(nc(OC[C@@]67CCCN6C[C@@]6(CC6(F)F)C7)nc5c3F)N3CCCOC[C@@H]3CC4)c12 [Example 22-3] |  |  |  | 2.55 nM | 3.75 nM | 0.47 nM | 1.17 nM |
| C#Cc1c(F)ccc2cc(O)cc(-c3nc4c5c(nc(OC[C@@]67CCCN6C[C@H](F)C7)nc5c3F)N3CCCOCC3CC4)c12 (stereo partly drawn) [Example 6-2] |  |  |  | 4.46 nM | 3.74 nM | 1.01 nM | 2.09 nM |
| Oc1cc(-c2nc3c4c(nc(OC[C@@]56CCCN5C[C@H](F)C6)nc4c2F)N2CCCOC[C@H]2CC3)c2c(F)c(F)ccc2c1 [Example 6-3] |  |  |  | 25.8 nM | 91.9 nM | 28.9 nM | 48 nM |
| C#Cc1c(F)ccc2cc(O)cc(-c3nc4c5c(nc(OC[C@@]67CCCN6C[C@H](F)C7)nc5c3F)N3CC(F)(F)COC[C@@H]3CC4)c12 (single isomer, unassigned) [Example 17-2] |  |  |  | 2.29 nM | 10.8 nM | 1.3 nM | 5.1 nM |

Continued by falling EC50 [4], values first:

| EC50 ([1]; read-out: AsPC1 pERK EC50) | EC50 [2] | EC50 [3] | EC50 [4] | EC50 ([1]; Homo sapiens, ASPC1) | EC50 ([2]; Homo sapiens) | EC50 ([3]; Homo sapiens) | SMILES |
| --- | --- | --- | --- | --- | --- | --- | --- |
| > 1000 nM | > 1000 nM | > 1000 nM | 517 nM |  |  |  | CCc1c(F)ccc2cc(O)cc(-c3nc4c5c(nc(OC[C@@]67CCCN6C[C@H](F)C7)nc5c3F)N3CCCCC3(C)CC4)c12 (stereo partly drawn) [Example 14-1, 5-ethyl-6-fluoro-4-(1-fluoro-11-(((2R,7aS)-2-fluorotetrahydro-1H-pyrrolizin-7a(5H)-yl)methoxy)-5a-methyl-5,5a,6,7,8,9-hexahydro-4H-3,9a,10,12-tetraazabenzo[4,5]cyclohepta[1,2,3-de]naphthalen-2-yl)naphthalen-2-ol] |
|  |  |  | 289 nM | 706 nM | 280 nM | 460 nM | C#Cc1c(F)ccc2cccc(-c3nc4c5c(nc(OC[C@@]67CCCN6[C@H](CF)CC7)nc5c3F)N3CCCOC[C@@H]3CC4)c12 [Example 6-10] |
|  |  |  | 78.5 nM | > 1000 nM | 265 nM | > 1000 nM | C#Cc1c(F)ccc2cc(O)cc(-c3nc4c5c(nc(OC[C@@]67CCCN6C[C@H](F)C7)nc5c3F)N3CC5(COCC3CC4)OCCO5)c12 (stereo partly drawn) [Example 6-16] |
|  |  |  | 48.4 nM | > 1000 nM | 448 nM | 397 nM | C#Cc1c(F)ccc2cc(O)cc(-c3nc4c5c(nc(O[C@@H](C)[C@@H]6CCCN6C)nc5c3F)N3CCCOC[C@@H]3CC4)c12 [Example 6-24] |
|  |  |  | 46.5 nM | 288 nM | 87.7 nM | 104 nM | C#Cc1c(F)ccc2cc(N)cc(-c3cc4c5c(nc(OC[C@@]67CCCN6C[C@H](F)C7)nc5c3F)N3CCCOCC3CC4)c12 (stereo partly drawn) [Example 3-2] |
|  |  |  | 41.1 nM | 125 nM | 72.3 nM | > 1000 nM | C#Cc1c(F)ccc2cc(N)cc(-c3nc4c5c(nc(OC[C@@]67CCCN6C[C@H](F)C7)nc5c3F)N3CCCOC[C@H]3C=C4C)c12 [Example 7-8] |
|  |  |  | 9.39 nM | 120 nM | 11 nM | 86.2 nM | C#Cc1c(F)ccc2cc(O)cc(-c3nc4c5c(nc(OC[C@@]67CCCN6C[C@H](F)C7)nc5c3F)N3CCCCCC3CC4)c12 (mixture of isomers) [Example 6-20] |
|  |  |  | 8.55 nM | 208 nM | 18.4 nM | 68.8 nM | C#Cc1c(F)ccc2cc(O)cc(-c3nc4c5c(nc(OC[C@@]67CCCN6C[C@H](F)C7)nc5c3F)N3CCOCC[C@H]3CCC4)c12 (single isomer, unassigned) [Example 10-1] |
|  |  |  | 6.12 nM | 118 nM | 9.14 nM | 20 nM | C#Cc1c(F)ccc2cc(N)cc(-c3nc4c5c(nc(OCC67CCCN6CCC7)nc5c3F)N3CCCOC[C@@H]3CC4)c12 [Example 7-3] |
| 25.1 nM | 12.6 nM | 14.7 nM | 3.89 nM |  |  |  | C#Cc1c(F)ccc2cc(O)cc(-c3nc4c5c(nc(OC[C@@]67CCCN6C[C@H](F)C7)nc5c3F)N3CCCC[C@H]3CC4)c12 [Example 1-1, 5-ethynyl-6-fluoro-4-((S)-1-fluoro-11-(((2R,7aS)-2-fluorotetrahydro-1H-pyrrolizin-7a(5H)-yl)methoxy)-5,5a,6,7,8,9-hexahydro-4H-3,9a,10,12-tetraazabenzo[4,5]cyclohepta[1,2,3-de]naphthalen-2-yl)naphthalen-2-ol] |
|  |  |  | 2.95 nM | 54.9 nM | 0.89 nM | 7.68 nM | C#Cc1c(F)ccc2cc(O)cc(-c3nc4c5c(nc(OC[C@@]67CCCN6C[C@H](F)C7)nc5c3F)N3CC(F)(F)COC[C@H]3CC4)c12 (single isomer, unassigned) [Example 17-1] |
|  |  |  | 1.99 nM | 0.61 nM | 0.28 nM | 0.56 nM | C#Cc1c(F)ccc2cc(O)cc(-c3nc4c5c(nc(OC[C@@]67CCCN6C[C@H](F)C7)nc5c3F)N3CCCOC[C@@H]3C=C4C)c12 [Example 6-18] |
